The text below walks through data of article PMC6030096, “Synergy of Physico-chemical and Biological Experiments for Developing a Cyclooxygenase-2 Inhibitor” (Scientific Reports, 2018).

The target of one assay is T1, COX-2 (Homo sapiens, UniProt P35354).
T1 sequence (P35354 18-604): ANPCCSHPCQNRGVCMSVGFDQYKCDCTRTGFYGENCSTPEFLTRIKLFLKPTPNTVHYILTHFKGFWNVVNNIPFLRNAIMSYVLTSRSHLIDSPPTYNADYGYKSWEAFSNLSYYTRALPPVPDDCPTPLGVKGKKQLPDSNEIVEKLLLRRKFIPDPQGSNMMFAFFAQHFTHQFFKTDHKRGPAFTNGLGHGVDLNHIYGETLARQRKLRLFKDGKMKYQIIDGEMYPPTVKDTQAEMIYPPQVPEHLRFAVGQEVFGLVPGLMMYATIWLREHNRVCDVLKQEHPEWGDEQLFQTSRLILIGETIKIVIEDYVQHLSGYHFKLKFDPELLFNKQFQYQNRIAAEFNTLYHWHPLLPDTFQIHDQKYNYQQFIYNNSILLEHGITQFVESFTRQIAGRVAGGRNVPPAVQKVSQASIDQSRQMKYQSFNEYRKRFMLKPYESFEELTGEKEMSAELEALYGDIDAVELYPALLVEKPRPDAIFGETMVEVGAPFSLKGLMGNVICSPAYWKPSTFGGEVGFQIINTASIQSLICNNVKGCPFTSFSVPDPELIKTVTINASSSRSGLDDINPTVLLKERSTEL
Briefly: Human whole blood assay for COX-2 (LPS stimulated PGE2). The format is cell-based. Further details: endogenous in cells; host or cells: human whole blood, aspirin-pretreated, LPS-stimulated. The note with it: final conc 1 µM, LPS 10 µg mL^−1. On the procedure: The use of human blood for the whole blood assay was duly approved by the institutional ethical committee of the University for human subjects. Production of prostaglandin PGE2 during lipopolysaccharide (LPS) stimulated whole blood was used to quantify COX-2 inhibitory activity whereas calcium ionophore (A23187) stimulated thromboxane (TxB2) production was used to measure COX-1 inhibitory activity of the compounds.
COX-2 assay was performed by inactivating COX-1 with 50 µL aspirin (10 µg/mL) per 400 µL of blood sample.

Assay [1] deals with T2, 5-LOX (Soybean lipoxygenase) (Glycine max, UniProt P08170).
T2 construct: purchased Cayman Chemical Co. 760700
T2 sequence (P08170 1-839): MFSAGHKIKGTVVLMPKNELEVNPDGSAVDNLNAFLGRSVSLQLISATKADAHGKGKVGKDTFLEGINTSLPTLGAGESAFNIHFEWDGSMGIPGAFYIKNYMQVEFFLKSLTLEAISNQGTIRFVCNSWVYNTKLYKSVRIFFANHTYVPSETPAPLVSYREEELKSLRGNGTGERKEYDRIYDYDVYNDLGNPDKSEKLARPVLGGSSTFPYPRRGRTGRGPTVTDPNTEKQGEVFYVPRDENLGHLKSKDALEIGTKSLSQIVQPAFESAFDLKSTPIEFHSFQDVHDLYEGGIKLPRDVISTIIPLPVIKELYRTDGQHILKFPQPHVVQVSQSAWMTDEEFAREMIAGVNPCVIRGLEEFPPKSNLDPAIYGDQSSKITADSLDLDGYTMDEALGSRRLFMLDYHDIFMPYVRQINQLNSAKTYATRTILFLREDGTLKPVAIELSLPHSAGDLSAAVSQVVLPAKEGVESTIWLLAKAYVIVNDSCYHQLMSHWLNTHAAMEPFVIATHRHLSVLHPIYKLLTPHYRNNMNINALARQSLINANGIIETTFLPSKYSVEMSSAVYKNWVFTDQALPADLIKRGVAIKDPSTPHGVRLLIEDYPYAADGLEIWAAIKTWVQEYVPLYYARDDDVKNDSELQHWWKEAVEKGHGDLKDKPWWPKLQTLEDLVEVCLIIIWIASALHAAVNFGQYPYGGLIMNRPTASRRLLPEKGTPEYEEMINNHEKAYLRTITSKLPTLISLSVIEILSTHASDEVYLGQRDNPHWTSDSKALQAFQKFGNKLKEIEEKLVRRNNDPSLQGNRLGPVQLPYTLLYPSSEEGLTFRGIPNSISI
Briefly: Lipoxygenase inhibitory activity assay. The format is biochemical. On the procedure: 10 µL of the compound of each concentration was mixed with 90 µL 5-LOX (Soybean lipoxygenase in assay buffer) in the specified wells of the 96-well plate. Two wells containing assay buffer and AA acted as blanks whereas four wells, each carrying enzyme and AA, were positive controls. 10 µL AA was added to each test well and the plate was shaken for 5 min. Chromogen (100 µL) was added to each well and the plate was again shaken for 5 min. The absorbance of each well at 490 nm was recorded on microplate scanning spectrophotometer. As per the protocol given with the assay kit, the 5-LOX inhibitory activity for each compound at each concentration was determined using the mean of the two values (duplicate experiments) with deviation <5%.

[2] abbreviates: soybean lipoxygenase, duplicate, read-out: IC50 5-LOX.

Read-outs that look alike come from different tables or passages of the source.

For orientation: IC50 means the concentration at which inhibition is half-maximal. On to `O=C1Nc2ccccc2C1=Cc1cn(C[C@H](O)Cn2c3ccccc3c(=O)c3ccccc32)c2ccccc12` [(S)-3c], for which, on COX-2, the “Production of PGE2, +LPS” value came out at 0.97 ± 0.09 ng/mL. In assay [1] (setting [2]), the IC50 came out at 500 ± 28 nM.
As for `O=C1NC(=O)C(=Cc2cn(CCCn3c4ccccc4c(=O)c4ccccc43)c3ccccc23)C(=O)N1` [Compound 4a], the “Production of PGE2, +LPS” value at COX-2 was 1.00 ± 0.13 ng/mL. In assay [1], this compound returned an IC50 of 200 ± 10 nM.
Consider `O=C1Nc2ccccc2C1=Cc1cn(CCCn2c3ccccc3c(=O)c3ccccc32)c2ccccc12` [Compound 4c], for which the “Production of PGE2, +LPS” value on COX-2 was found to be 1.01 ± 0.14 ng/mL. For the same compound, the IC50 in assay [1] (setting [2]) worked out at 100 ± 80 nM.
